The target of one test is T1, Aurora kinase A (Homo sapiens, UniProt O14965).
T1 sequence (O14965 whole entry): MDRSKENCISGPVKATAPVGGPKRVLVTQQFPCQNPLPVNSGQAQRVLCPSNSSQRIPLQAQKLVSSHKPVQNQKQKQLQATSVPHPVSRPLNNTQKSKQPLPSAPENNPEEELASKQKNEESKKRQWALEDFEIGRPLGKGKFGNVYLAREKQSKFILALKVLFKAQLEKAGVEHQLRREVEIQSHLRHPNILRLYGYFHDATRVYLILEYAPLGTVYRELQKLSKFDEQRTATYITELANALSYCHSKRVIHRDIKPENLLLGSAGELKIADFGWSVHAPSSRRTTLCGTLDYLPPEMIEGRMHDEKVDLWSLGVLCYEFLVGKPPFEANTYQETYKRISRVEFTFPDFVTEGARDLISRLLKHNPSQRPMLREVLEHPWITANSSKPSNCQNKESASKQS
The experiment in a line: Inhibition of recombinant Aurora A.

The next test concerns the target Aurora kinase B (Homo sapiens, UniProt Q96GD4). The experiment in a line: Inhibition of recombinant Aurora B.
The target in test [1] is Cyclin-dependent kinase 4/cyclin D1 (Homo sapiens, UniProt P11802). Kind of test: Inhibition of recombinant CDK4/CycD1. The class given is protein-complex assay.
Test [2] addresses Mitogen-activated protein kinase kinase kinase 8 (Homo sapiens, UniProt P41279). The experiment in a line: Inhibition of recombinant COT.
In test [3] the target is Insulin-like growth factor 1 receptor (Homo sapiens, UniProt P08069). The experiment in a line: Inhibition of recombinant IGF1R.
Test [4] deals with Proto-oncogene tyrosine-protein kinase Src (Homo sapiens, UniProt P12931). The experiment in a line: Inhibition of recombinant SRC.
Test [5] deals with Vascular endothelial growth factor receptor 2 (Homo sapiens, UniProt P35968). Kind of test: Inhibition of recombinant VEGFR2.
Vascular endothelial growth factor receptor 2, sequence (P35968 whole entry): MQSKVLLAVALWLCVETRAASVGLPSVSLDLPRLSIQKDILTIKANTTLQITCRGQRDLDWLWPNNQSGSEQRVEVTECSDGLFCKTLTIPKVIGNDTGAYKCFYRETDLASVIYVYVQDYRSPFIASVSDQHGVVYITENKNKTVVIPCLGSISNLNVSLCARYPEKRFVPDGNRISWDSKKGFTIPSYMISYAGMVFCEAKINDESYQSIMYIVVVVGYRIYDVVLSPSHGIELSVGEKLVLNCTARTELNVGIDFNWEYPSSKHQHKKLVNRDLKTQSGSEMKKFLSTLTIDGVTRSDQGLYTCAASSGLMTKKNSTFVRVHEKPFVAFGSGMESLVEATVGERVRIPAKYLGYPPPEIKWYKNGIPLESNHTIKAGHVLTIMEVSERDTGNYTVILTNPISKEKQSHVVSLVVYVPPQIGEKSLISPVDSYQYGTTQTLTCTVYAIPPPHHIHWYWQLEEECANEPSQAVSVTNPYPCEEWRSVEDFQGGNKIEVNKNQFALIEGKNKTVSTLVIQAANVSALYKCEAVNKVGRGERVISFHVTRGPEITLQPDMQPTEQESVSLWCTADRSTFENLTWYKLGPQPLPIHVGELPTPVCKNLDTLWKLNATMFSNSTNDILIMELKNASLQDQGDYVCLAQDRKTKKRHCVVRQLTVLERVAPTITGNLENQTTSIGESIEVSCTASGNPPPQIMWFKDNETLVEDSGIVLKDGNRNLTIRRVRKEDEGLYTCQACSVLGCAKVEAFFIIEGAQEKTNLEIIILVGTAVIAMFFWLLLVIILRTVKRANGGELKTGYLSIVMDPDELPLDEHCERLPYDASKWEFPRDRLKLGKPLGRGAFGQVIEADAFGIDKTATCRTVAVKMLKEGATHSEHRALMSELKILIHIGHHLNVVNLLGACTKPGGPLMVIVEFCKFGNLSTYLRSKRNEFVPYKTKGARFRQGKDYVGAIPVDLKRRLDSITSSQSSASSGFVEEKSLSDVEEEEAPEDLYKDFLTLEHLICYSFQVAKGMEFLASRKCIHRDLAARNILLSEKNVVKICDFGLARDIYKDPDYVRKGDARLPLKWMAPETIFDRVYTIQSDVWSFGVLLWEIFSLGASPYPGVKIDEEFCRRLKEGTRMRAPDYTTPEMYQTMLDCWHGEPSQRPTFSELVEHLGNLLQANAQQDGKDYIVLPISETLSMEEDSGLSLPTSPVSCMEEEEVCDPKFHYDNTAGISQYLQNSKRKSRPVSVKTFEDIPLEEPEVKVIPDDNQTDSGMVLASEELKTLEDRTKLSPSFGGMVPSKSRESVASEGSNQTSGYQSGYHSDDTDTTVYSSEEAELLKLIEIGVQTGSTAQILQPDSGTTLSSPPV
Test [6] deals with Vascular endothelial growth factor receptor 3 (Homo sapiens, UniProt P35916). Kind of test: Inhibition of recombinant VEGFR3.
The target in test [7] is T2, Receptor-type tyrosine-protein kinase FLT3 (Homo sapiens, UniProt P36888).
T2 sequence (P36888 whole entry): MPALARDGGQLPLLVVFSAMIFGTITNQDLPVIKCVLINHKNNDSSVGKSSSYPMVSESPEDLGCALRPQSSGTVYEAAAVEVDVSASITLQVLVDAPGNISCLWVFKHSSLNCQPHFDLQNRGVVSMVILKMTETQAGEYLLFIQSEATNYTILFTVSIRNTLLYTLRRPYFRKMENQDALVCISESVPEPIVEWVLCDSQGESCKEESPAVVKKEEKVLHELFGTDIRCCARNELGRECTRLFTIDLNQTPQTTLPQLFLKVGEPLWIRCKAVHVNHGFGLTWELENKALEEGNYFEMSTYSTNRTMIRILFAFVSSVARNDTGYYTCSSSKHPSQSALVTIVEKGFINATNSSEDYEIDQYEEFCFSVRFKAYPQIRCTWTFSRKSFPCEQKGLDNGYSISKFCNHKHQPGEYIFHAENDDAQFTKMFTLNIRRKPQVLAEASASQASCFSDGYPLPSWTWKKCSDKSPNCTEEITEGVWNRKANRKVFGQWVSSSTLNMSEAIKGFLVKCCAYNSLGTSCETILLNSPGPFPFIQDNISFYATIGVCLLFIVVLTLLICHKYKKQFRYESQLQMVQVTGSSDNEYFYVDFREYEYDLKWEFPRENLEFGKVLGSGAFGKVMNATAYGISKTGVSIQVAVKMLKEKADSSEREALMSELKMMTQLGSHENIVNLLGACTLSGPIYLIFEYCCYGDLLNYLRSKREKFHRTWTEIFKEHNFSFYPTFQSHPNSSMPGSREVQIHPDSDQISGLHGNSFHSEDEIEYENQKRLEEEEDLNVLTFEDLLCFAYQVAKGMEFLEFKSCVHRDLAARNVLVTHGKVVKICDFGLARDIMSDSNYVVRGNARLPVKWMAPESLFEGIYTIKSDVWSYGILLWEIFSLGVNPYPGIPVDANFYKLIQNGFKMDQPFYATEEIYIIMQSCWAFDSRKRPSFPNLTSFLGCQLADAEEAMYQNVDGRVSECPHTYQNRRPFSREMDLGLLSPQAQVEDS
The experiment in a line: Inhibition of recombinant FLT3.

The next test addresses Insulin receptor (Homo sapiens, UniProt P06213). The experiment in a line: Inhibition of recombinant INSR.
The target in test [8] is Hepatocyte growth factor receptor (Homo sapiens, UniProt P08581). Kind of test: Inhibition of recombinant MET.
Hepatocyte growth factor receptor, sequence (P08581 whole entry): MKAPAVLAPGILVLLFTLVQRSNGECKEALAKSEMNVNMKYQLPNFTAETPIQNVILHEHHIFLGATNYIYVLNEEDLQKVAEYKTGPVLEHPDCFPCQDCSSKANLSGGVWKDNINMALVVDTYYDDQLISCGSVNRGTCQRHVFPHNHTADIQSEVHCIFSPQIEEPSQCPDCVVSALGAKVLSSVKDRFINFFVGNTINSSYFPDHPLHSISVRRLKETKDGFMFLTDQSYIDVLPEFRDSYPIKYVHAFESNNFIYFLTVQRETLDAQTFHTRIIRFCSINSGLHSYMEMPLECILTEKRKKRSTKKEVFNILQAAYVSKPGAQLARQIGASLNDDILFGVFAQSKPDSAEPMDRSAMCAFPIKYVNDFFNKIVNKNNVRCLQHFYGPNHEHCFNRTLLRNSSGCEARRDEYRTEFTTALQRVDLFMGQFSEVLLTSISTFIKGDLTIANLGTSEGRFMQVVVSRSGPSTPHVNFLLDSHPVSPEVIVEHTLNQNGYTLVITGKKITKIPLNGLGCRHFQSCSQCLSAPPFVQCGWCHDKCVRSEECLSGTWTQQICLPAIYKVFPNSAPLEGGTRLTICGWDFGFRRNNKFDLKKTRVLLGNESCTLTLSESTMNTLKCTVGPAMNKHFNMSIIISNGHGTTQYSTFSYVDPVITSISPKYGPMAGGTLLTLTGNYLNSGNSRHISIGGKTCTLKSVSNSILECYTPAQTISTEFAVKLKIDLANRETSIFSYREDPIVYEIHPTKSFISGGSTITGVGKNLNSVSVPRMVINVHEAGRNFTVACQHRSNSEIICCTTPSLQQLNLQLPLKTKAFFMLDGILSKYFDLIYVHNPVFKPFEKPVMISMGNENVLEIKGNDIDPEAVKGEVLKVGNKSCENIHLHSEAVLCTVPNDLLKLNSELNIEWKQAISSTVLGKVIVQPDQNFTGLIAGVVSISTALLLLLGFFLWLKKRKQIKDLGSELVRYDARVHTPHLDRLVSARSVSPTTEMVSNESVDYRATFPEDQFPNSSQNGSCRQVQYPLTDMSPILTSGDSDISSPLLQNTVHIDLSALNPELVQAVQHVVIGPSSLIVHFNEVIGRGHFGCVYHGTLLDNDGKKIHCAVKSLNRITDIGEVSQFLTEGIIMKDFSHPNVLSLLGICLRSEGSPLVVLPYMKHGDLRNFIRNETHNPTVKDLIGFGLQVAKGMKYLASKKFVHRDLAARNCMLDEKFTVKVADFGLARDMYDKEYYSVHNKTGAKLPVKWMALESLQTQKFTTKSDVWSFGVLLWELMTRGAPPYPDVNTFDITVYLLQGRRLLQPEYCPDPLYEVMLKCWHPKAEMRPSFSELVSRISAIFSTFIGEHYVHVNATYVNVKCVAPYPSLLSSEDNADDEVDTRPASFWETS
Test [9] deals with T3, Serine/threonine-protein kinase PLK4 (Homo sapiens, UniProt O00444).
T3 sequence (O00444 whole entry): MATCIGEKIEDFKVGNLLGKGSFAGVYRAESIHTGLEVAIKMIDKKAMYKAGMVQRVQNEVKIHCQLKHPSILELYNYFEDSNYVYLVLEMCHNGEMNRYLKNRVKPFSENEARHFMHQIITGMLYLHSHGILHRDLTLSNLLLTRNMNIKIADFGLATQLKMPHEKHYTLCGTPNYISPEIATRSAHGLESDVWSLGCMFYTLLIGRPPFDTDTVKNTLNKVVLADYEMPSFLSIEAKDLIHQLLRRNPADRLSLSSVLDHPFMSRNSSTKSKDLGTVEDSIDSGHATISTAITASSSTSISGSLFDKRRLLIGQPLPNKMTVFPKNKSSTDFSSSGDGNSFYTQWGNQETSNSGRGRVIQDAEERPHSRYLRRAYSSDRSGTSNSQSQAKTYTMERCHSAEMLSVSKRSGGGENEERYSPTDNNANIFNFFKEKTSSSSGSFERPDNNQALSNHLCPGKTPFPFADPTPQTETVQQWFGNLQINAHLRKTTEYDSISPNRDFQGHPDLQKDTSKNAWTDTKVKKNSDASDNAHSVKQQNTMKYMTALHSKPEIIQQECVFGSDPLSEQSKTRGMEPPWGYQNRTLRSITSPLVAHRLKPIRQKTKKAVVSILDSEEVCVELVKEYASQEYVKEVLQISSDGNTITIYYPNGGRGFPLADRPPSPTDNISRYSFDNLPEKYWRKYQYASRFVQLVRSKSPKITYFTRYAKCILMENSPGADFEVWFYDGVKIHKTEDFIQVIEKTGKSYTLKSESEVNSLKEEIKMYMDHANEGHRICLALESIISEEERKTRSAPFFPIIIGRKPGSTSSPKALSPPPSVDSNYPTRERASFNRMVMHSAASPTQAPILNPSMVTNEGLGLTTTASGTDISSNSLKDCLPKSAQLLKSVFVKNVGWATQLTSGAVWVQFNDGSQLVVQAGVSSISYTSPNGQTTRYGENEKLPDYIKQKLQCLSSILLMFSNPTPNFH
Kind of test: Inhibition of recombinant SAK.

Test [10] concerns L5178Y. The experiment in a line: Cytotoxicity against mouse L5178Y cells at 10 ug/mL by MTT assay. Type of test: functional. In general terms: Tetrazolium assays rely on reduction of a dye to a coloured formazan, in cell work by metabolically active cells.
The target in a further test is Angiopoietin-1 receptor (Homo sapiens, UniProt Q02763). The experiment in a line: Inhibition of recombinant TIE2.
Angiopoietin-1 receptor, sequence (Q02763 whole entry): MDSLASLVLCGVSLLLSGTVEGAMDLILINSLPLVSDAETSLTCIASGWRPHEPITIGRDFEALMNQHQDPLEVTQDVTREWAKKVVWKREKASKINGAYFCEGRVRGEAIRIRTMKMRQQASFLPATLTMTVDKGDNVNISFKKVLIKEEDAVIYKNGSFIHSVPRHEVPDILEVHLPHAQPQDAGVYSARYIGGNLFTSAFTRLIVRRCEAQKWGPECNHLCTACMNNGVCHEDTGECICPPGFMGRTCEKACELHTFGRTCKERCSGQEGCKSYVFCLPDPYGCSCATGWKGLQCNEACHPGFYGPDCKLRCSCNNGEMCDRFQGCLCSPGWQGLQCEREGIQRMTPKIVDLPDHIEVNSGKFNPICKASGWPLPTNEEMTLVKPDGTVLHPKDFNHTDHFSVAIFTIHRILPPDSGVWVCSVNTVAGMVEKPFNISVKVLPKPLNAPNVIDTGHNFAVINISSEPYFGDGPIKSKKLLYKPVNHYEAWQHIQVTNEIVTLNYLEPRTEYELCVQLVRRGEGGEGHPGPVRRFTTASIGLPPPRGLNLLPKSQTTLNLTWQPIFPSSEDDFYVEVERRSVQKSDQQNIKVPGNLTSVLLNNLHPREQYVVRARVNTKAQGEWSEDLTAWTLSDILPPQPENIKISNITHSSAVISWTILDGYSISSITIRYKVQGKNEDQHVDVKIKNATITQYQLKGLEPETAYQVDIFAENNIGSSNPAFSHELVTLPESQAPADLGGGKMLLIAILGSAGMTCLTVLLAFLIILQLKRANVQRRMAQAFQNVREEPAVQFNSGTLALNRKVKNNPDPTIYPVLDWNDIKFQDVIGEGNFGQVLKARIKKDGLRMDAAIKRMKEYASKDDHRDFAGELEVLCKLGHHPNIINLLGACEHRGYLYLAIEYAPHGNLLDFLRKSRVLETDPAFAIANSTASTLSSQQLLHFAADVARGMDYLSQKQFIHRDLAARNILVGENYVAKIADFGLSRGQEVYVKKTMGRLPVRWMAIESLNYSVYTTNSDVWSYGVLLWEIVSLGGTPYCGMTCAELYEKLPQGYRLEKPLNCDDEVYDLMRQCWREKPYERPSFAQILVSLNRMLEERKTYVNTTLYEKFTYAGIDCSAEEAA
The test system of test [11] is L5178Y. The experiment in a line: cells. As to conditions: Mus musculus.
Description: Cytotoxicity against mouse L5178Y cells by MTT assay
For test [12], the target named is RAC-alpha serine/threonine-protein kinase (Homo sapiens, UniProt P31749). Kind of test: Inhibition of recombinant AKT1.
The target of test [13] is NUAK family SNF1-like kinase 1 (Homo sapiens, UniProt O60285). Kind of test: Inhibition of recombinant ARK5.
Test [14] concerns the target Serine/threonine-protein kinase B-raf (Homo sapiens, UniProt P15056, V600E). The experiment in a line: Inhibition of recombinant B-RAF-V600E mutant.
Test [15] concerns the target Cyclin-dependent kinase 2 (Homo sapiens, UniProt P24941). The experiment in a line: Inhibition of recombinant CDK2/CycA.
A further test concerns the target Ephrin type-B receptor 4 (Homo sapiens, UniProt P54760). The experiment in a line: Inhibition of recombinant EPHB4.
The target in test [16] is Receptor tyrosine-protein kinase erbB-2 (Homo sapiens, UniProt P04626). The experiment in a line: Inhibition of recombinant ERBB2.
The target in a further test is Focal adhesion kinase 1 (Homo sapiens, UniProt Q05397). The experiment in a line: Inhibition of recombinant FAK.
In test [17] the target is Serine/threonine-protein kinase PLK1 (Homo sapiens, UniProt P53350). The experiment in a line: Inhibition of recombinant PLK1.
Test [18] addresses Casein kinase II subunit alpha (Homo sapiens, UniProt P68400). The experiment in a line: Inhibition of recombinant CK2alpha1.

Converted amounts (≈) assume the structure as drawn.

As a reminder, the IC50 is the point on the concentration scale where inhibition reaches its midpoint. The term EC50 denotes the concentration needed to bring the measured effect to its halfway point.

Aurora kinase B, sequence (Q96GD4 whole entry): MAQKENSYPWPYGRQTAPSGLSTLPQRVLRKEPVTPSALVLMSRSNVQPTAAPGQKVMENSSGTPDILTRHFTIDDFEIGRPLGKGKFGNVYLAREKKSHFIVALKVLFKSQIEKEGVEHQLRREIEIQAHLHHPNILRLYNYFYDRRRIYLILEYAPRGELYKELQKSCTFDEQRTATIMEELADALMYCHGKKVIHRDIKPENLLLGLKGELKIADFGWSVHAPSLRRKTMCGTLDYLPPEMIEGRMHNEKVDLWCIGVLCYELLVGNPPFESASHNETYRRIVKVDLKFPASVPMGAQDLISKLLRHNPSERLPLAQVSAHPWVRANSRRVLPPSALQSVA
Mitogen-activated protein kinase kinase kinase 8, sequence (P41279 whole entry): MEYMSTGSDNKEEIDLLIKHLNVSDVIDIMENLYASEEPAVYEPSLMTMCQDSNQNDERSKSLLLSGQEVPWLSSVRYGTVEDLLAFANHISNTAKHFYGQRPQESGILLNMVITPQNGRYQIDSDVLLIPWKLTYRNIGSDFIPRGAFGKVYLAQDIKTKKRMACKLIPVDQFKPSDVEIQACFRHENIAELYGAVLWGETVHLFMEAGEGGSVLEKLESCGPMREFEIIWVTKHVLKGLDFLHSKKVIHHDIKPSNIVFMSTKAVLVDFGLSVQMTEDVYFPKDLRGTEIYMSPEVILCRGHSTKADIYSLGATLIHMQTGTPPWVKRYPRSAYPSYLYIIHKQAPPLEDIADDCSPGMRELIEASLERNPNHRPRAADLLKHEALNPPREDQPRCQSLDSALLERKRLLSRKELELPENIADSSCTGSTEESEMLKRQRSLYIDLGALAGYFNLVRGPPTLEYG
Casein kinase II subunit alpha, sequence (P68400 whole entry): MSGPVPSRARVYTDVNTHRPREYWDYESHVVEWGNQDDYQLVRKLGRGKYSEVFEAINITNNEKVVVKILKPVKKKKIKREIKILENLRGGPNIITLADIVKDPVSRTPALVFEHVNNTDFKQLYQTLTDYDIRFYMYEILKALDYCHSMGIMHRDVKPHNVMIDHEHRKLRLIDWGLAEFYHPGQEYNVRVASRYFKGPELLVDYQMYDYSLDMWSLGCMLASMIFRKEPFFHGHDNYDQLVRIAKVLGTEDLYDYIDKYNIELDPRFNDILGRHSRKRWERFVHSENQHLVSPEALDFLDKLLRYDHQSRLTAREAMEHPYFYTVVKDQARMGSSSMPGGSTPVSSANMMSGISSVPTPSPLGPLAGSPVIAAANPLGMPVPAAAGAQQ

As for `COc1cc(O)c2c(c1)C(=O)c1cc(C)c(O)c(O)c1C2=O`, the IC50 at Aurora kinase A is 9.99 µM; on Aurora kinase B it was 5.99 µM; in test [1] it was 12 µM; in test [2], 24.3 µM; in [3], 9.33 µM; in test [4], 5.99 µM. In addition, the IC50 is 4 µM in test [5]; 8.99 µM in test [6]; 8.33 µM in test [7]; 13 µM on Insulin receptor; 14.3 µM in [8]; 14.7 µM in test [9]. In addition, at Angiopoietin-1 receptor, the IC50 is 15 µM. This compound had an Activity in the test with L5178Y [10] of 4.9%. The concentration for a half-maximal effect (EC50) in the test with L5178Y [11] was found to be 4.2 µg/mL (≈ 14 µM).
Regarding `COc1cc(O)c2c(c1-c1c(OC)cc(O)c3c1C(=O)c1cc(C)c(O)cc1C3=O)C(=O)C1=C(C2=O)[C@H](O)[C@@H](O)[C@@](C)(O)[C@@H]1O` (single isomer, unassigned; atropisomer) [ALTERPORRIOL A/B], in the test on L5178Y [10], the Activity is 31.1%.
As to `COc1cc2c(c(O)c1-c1c(OC)cc(O)c3c1C(=O)C1=C(C3=O)[C@H](O)[C@@H](O)[C@@](C)(O)[C@@H]1O)C(=O)c1cc(O)c(C)cc1C2=O` (single isomer, unassigned; atropisomer) [ALTERPORRIOL G/H], the IC50 in [12] is above 16.2 µM; in test [13] it was 6.14 µM; at Aurora kinase A it was 4.53 µM; on Aurora kinase B, 3.88 µM; in test [14], 10.5 µM; in test [15], above 16.2 µM. Further, the IC50 in [1] is 7.6 µM; in test [2], 6.79 µM; on Ephrin type-B receptor 4, 6.79 µM; in test [16], 6.79 µM; on Focal adhesion kinase 1, 8.89 µM; in [3], 3.07 µM. In addition, the 50% inhibitory concentration (IC50) was 2.75 µM in [4]; 5.5 µM in test [5]; 6.47 µM in [6]; 4.53 µM in test [7]; 5.98 µM at Insulin receptor; 10.3 µM in [8]. The IC50 in test [17] was above 16.2 µM; in [18], above 16.2 µM; in [9] it was 2.26 µM; on Angiopoietin-1 receptor, 5.34 µM. The Activity in the test on L5178Y [10] came to 0.1%.
Consider `COc1cc(O)c2c(c1-c1c(OC)cc(O)c3c1C(=O)C1=C(C3=O)[C@@H](O)[C@H](O)[C@](C)(O)[C@H]1O)C(=O)C1=C(C2=O)[C@H](O)[C@@H](O)[C@@](C)(O)[C@@H]1O` (stereo in doubt; 6), for which the Activity in the test on L5178Y [10] came to 92.1%. In addition, the EC50 with L5178Y [11] was 2.27 µg/mL (≈ 3.39 µM).
In the test on L5178Y [10], `COc1cc(O)c2c(c1-c1c(OC)cc(O)c3c1C(=O)C1=C(C3=O)[C@@H](O)[C@H](O)[C@](C)(O)[C@H]1O)C(=O)C1=C(C2=O)[C@H](O)[C@@H](O)[C@@](C)(O)[C@@H]1O` (stereo in doubt; 7) had an Activity of 64.8%.
Consider `COc1cc(O)c2c(c1)C(=O)[C@H]1C[C@](C)(O)[C@H](O)C[C@@H]1[C@H]2O` [ALTERSOLANOL J], for which, in the test on L5178Y [10], the Activity is recorded as 20.1%.
Consider `COc1cc(O)c2c(c1)C(=O)[C@@H]1[C@H](C[C@@H](O)[C@@](C)(O)[C@@H]1O)[C@H]2O` [ALTERSOLANOL K], for which the Activity with L5178Y [10] came to 41.4%.
The compound `COc1cc(O)c2c(c1)[C@H](O)[C@@H]1[C@H](C[C@@H](O)[C@@](C)(O)[C@@H]1O)C2=O` [ALTERSOLANOL L] came in with an Activity with L5178Y [10] of 51.4%.
As to `Cc1cc(O)c2c(c1)C(=O)c1cc(O)cc(O)c1C2=O` [EMODIN], the Activity in the test on L5178Y [10] was determined as 77%.
Consider `C/C=C1\NC(=O)[C@H](Cc2ccccc2)NC(=O)[C@@H](C(C)C)NC(=O)[C@@H]([C@H](C)CC)NC(=O)[C@H](NC(=O)[C@H](NC(=O)[C@H](CCCN)NC(=O)[C@H]2CCCN2C(=O)[C@H](NC(=O)[C@@H](NC(=O)[C@@H](NC(=O)[C@H](NC(=O)CCCC(C)C)C(C)C)[C@@H](C)O)C(C)C)C(C)C)[C@H](C)CC)[C@H](C)OC(=O)[C@H](C(C)C)NC1=O` [KAHALALIDE F], for which a half-maximal response with L5178Y [11] (EC50) required 6.3 µg/mL (≈ 4.26 µM).
In the case of `COc1cc(O)c2c(c1)C(=O)c1cc(C)c(O)cc1C2=O` [MACROSPORIN], the IC50 is 6.68 µM at Aurora kinase A; 2.29 µM at Aurora kinase B; 22.5 µM in [14]; 27.1 µM in [2]; 25.7 µM in test [16]; 8.44 µM in test [5]. Besides, the concentration for half-maximal inhibition (IC50) was 2.99 µM in test [7], 15.1 µM in test [8], 15.1 µM in test [9] and 6.68 µM on Angiopoietin-1 receptor. In the test with L5178Y [10], the Activity amounted to 54.5%.
